Measurements taken from ChEMBL document CHEMBL3525983, “Pharmacokinetics, metabolism, and disposition of rivoglitazone, a novel peroxisome proliferator-activated receptor γ agonist, in rats and monkeys” (Drug Metab Dispos, 2011).

How the values were obtained:
[1] = Drug excretion in bile duct-cannulated rat feces assessed as unchanged compound level administered through oral dose by radio-HPLC analysis; type: ADME; design: dosed compound name [14C]Rivoglitazone; conditions: read-out: Compound recovery
[2] = AUC (0 to infinity) in F344/DuCrlCrlj rat at 0.5 mg/kg, po administered via gavage by LC-MS/MS analysis; type: ADME, organism-based; design: time infinity, dose 0.5 mg/kg, dosed compound name [14C]Rivoglitazone, route oral; conditions: plasma
[3] = Drug excretion in bile duct-cannulated rat feces assessed as unchanged compound level administered through intravenous by radio-HPLC analysis; type: ADME; design: dosed compound name [14C]Rivoglitazone; conditions: read-out: Compound recovery
[4] = Terminal elimination half life in monkey at 0.986 mg/kg, po administered via gavage by LC-MS/MS analysis; type: ADME, organism-based, Macaca mulatta; design: dose 0.986 mg/kg, dosed compound name [14C]Rivoglitazone, route oral; conditions: rhesus monkey, in vivo, read-out: beta t1/2 (converted)
[5] = AUC (0 to t) in F344/DuCrlCrlj rat at 0.1 mg/kg, iv administered via tail vein by LC-MS/MS analysis; type: ADME, organism-based; design: dose 0.1 mg/kg, dosed compound name [14C]Rivoglitazone, route intravenous; conditions: plasma
[6] = AUC (0 to infinity) in F344/DuCrlCrlj rat at 0.5 mg/kg, iv administered via tail vein by LC-MS/MS analysis; type: ADME, organism-based; design: time infinity, dose 0.5 mg/kg, dosed compound name [14C]Rivoglitazone, route intravenous; conditions: plasma
[7] = Tmax in F344/DuCrlCrlj rat at 0.1 mg/kg, po administered via gavage by LC-MS/MS analysis; type: ADME, organism-based; design: dose 0.1 mg/kg, dosed compound name [14C]Rivoglitazone, route oral; conditions: in vivo
[8] = Terminal elimination half life in F344/DuCrlCrlj rat at 0.5 mg/kg, iv administered via tail vein by LC-MS/MS analysis; type: ADME, organism-based; design: dose 0.5 mg/kg, dosed compound name [14C]Rivoglitazone, route intravenous; conditions: in vivo, read-out: beta t1/2 (converted)
[9] = Terminal elimination half life in monkey at 0.986 mg/kg, iv administered via tail vein by LC-MS/MS analysis; type: ADME, organism-based, Macaca mulatta; design: dose 0.986 mg/kg, dosed compound name [14C]Rivoglitazone, route intravenous; conditions: rhesus monkey, in vivo, read-out: beta t1/2 (converted)
[10] = AUC (0 to t) in F344/DuCrlCrlj rat at 0.1 mg/kg, po administered via gavage by LC-MS/MS analysis; type: ADME, organism-based; design: dose 0.1 mg/kg, dosed compound name [14C]Rivoglitazone, route oral; conditions: plasma
[11] = Total clearance in F344/DuCrlCrlj rat at 0.1 mg/kg, iv administered via tail vein by LC-MS/MS analysis; type: ADME, organism-based; design: dose 0.1 mg/kg, dosed compound name [14C]Rivoglitazone, route intravenous; conditions: in vivo
[12] = Oral bioavailability in monkey at 0.493 mg/kg administered via gavage by LC-MS/MS analysis; type: ADME, organism-based, Macaca mulatta; design: dosed compound name [14C]Rivoglitazone; conditions: rhesus monkey, in vivo
[13] = Oral bioavailability in F344/DuCrlCrlj rat at 0.5 mg/kg administered via gavage by LC-MS/MS analysis; type: ADME, organism-based; design: dosed compound name [14C]Rivoglitazone; conditions: in vivo
[14] = Drug excretion in monkey feces assessed as unchanged compound at 1 mg/kg, po administered via gavage measured during 0 to 72 hrs by radio-HPLC analysis; type: ADME, organism-based, Macaca mulatta; design: dose 1 mg/kg, dosed compound name [14C]Rivoglitazone, route oral; conditions: rhesus monkey, read-out: Compound recovery
[15] = Cmax in F344/DuCrlCrlj rat at 1 mg/kg, po administered via gavage by LC-MS/MS analysis; type: ADME, organism-based; design: dose 1 mg/kg, dosed compound name [14C]Rivoglitazone, route oral; conditions: in vivo
[16] = AUC (0 to t) in monkey at 0.986 mg/kg, po administered via gavage by LC-MS/MS analysis; type: ADME, organism-based, Macaca mulatta; design: dose 0.986 mg/kg, dosed compound name [14C]Rivoglitazone, route oral; conditions: rhesus monkey, plasma
[17] = Cmax in monkey at 0.0986 mg/kg, po administered via gavage by LC-MS/MS analysis; type: ADME, organism-based, Macaca mulatta; design: dose 0.0986 mg/kg, dosed compound name [14C]Rivoglitazone, route oral; conditions: rhesus monkey, in vivo
[18] = Apparent total clearance in monkey at 0.493 mg/kg, po administered via gavage by LC-MS/MS analysis; type: ADME, organism-based, Macaca mulatta; design: dose 0.493 mg/kg, dosed compound name [14C]Rivoglitazone, route oral; conditions: rhesus monkey, in vivo, read-out: CLt/F
[19] = Oral bioavailability in monkey at 0.986 mg/kg administered via gavage by LC-MS/MS analysis; type: ADME, organism-based, Macaca mulatta; design: dosed compound name [14C]Rivoglitazone; conditions: rhesus monkey, in vivo
[20] = Cmax in monkey at 0.493 mg/kg, po administered via gavage by LC-MS/MS analysis; type: ADME, organism-based, Macaca mulatta; design: dose 0.493 mg/kg, dosed compound name [14C]Rivoglitazone, route oral; conditions: rhesus monkey, in vivo
[21] = AUC (0 to infinity) in monkey at 0.986 mg/kg, iv administered via tail vein by LC-MS/MS analysis; type: ADME, organism-based, Macaca mulatta; design: time infinity, dose 0.986 mg/kg, dosed compound name [14C]Rivoglitazone, route intravenous; conditions: rhesus monkey, plasma
[22] = Apparent total clearance in monkey at 0.0986 mg/kg, po administered via gavage by LC-MS/MS analysis; type: ADME, organism-based, Macaca mulatta; design: dose 0.0986 mg/kg, dosed compound name [14C]Rivoglitazone, route oral; conditions: rhesus monkey, in vivo, read-out: CLt/F
[23] = Volume of distribution at steady state in F344/DuCrlCrlj rat at 0.1 mg/kg, iv administered via tail vein by LC-MS/MS analysis; type: ADME, organism-based; design: dose 0.1 mg/kg, dosed compound name [14C]Rivoglitazone, route intravenous; conditions: in vivo, read-out: Vdss
[24] = Tmax in F344/DuCrlCrlj rat at 0.5 mg/kg, po administered via gavage by LC-MS/MS analysis; type: ADME, organism-based; design: dose 0.5 mg/kg, dosed compound name [14C]Rivoglitazone, route oral; conditions: in vivo
[25] = AUC (0 to t) in monkey at 0.493 mg/kg, po administered via gavage by LC-MS/MS analysis; type: ADME, organism-based, Macaca mulatta; design: dose 0.493 mg/kg, dosed compound name [14C]Rivoglitazone, route oral; conditions: rhesus monkey, plasma
[26] = AUC (0 to infinity) in F344/DuCrlCrlj rat at 1 mg/kg, po administered via gavage by LC-MS/MS analysis; type: ADME, organism-based; design: time infinity, dose 1 mg/kg, dosed compound name [14C]Rivoglitazone, route oral; conditions: plasma
[27] = AUC (0 to t) in monkey at 0.986 mg/kg, iv administered via tail vein by LC-MS/MS analysis; type: ADME, organism-based, Macaca mulatta; design: dose 0.986 mg/kg, dosed compound name [14C]Rivoglitazone, route intravenous; conditions: rhesus monkey, plasma
[28] = Volume of distribution at steady state in monkey at 0.0986 mg/kg, iv administered via tail vein by LC-MS/MS analysis; type: ADME, organism-based, Macaca mulatta; design: dose 0.0986 mg/kg, dosed compound name [14C]Rivoglitazone, route intravenous; conditions: rhesus monkey, in vivo, read-out: Vdss
[29] = Volume of distribution at steady state in monkey at 0.493 mg/kg, iv administered via tail vein by LC-MS/MS analysis; type: ADME, organism-based, Macaca mulatta; design: dose 0.493 mg/kg, dosed compound name [14C]Rivoglitazone, route intravenous; conditions: rhesus monkey, in vivo, read-out: Vdss
[30] = Terminal elimination half life in monkey at 0.493 mg/kg, iv administered via tail vein by LC-MS/MS analysis; type: ADME, organism-based, Macaca mulatta; design: dose 0.493 mg/kg, dosed compound name [14C]Rivoglitazone, route intravenous; conditions: rhesus monkey, in vivo, read-out: beta t1/2 (converted)
[31] = Oral bioavailability in F344/DuCrlCrlj rat at 0.1 mg/kg administered via gavage by LC-MS/MS analysis; type: ADME, organism-based; design: dosed compound name [14C]Rivoglitazone; conditions: in vivo
[32] = Volume of distribution at steady state in monkey at 0.986 mg/kg, iv administered via tail vein by LC-MS/MS analysis; type: ADME, organism-based, Macaca mulatta; design: dose 0.986 mg/kg, dosed compound name [14C]Rivoglitazone, route intravenous; conditions: rhesus monkey, in vivo, read-out: Vdss
[33] = AUC (0 to infinity) in F344/DuCrlCrlj rat at 0.1 mg/kg, po administered via gavage by LC-MS/MS analysis; type: ADME, organism-based; design: time infinity, dose 0.1 mg/kg, dosed compound name [14C]Rivoglitazone, route oral; conditions: plasma
[34] = AUC (0 to infinity) in monkey at 0.493 mg/kg, iv administered via tail vein by LC-MS/MS analysis; type: ADME, organism-based, Macaca mulatta; design: time infinity, dose 0.493 mg/kg, dosed compound name [14C]Rivoglitazone, route intravenous; conditions: rhesus monkey, plasma
[35] = AUC (0 to infinity) in monkey at 0.0986 mg/kg, po administered via gavage by LC-MS/MS analysis; type: ADME, organism-based, Macaca mulatta; design: time infinity, dose 0.0986 mg/kg, dosed compound name [14C]Rivoglitazone, route oral; conditions: rhesus monkey, plasma
[36] = Apparent total clearance in F344/DuCrlCrlj rat at 0.5 mg/kg, po administered via gavage by LC-MS/MS analysis; type: ADME, organism-based; design: dose 0.5 mg/kg, dosed compound name [14C]Rivoglitazone, route oral; conditions: in vivo, read-out: CLt/F
[37] = Cmax in F344/DuCrlCrlj rat at 0.5 mg/kg, po administered via gavage by LC-MS/MS analysis; type: ADME, organism-based; design: dose 0.5 mg/kg, dosed compound name [14C]Rivoglitazone, route oral; conditions: in vivo
[38] = AUC (0 to t) in F344/DuCrlCrlj rat at 1 mg/kg, po administered via gavage by LC-MS/MS analysis; type: ADME, organism-based; design: dose 1 mg/kg, dosed compound name [14C]Rivoglitazone, route oral; conditions: plasma
[39] = Drug excretion in monkey urine/feces assessed as unchanged compound at 1 mg/kg, po administered via gavage measured during 0 to 72 hrs by radio-HPLC analysis; type: ADME, organism-based, Macaca mulatta; design: dose 1 mg/kg, dosed compound name [14C]Rivoglitazone, route oral; conditions: rhesus monkey, urine and feces, read-out: Compound recovery
[40] = Terminal elimination half life in monkey at 0.0986 mg/kg, po administered via gavage by LC-MS/MS analysis; type: ADME, organism-based, Macaca mulatta; design: dose 0.0986 mg/kg, dosed compound name [14C]Rivoglitazone, route oral; conditions: rhesus monkey, in vivo, read-out: beta t1/2 (converted)
[41] = Terminal elimination half life in F344/DuCrlCrlj rat at 0.1 mg/kg, iv administered via tail vein by LC-MS/MS analysis; type: ADME, organism-based; design: dose 0.1 mg/kg, dosed compound name [14C]Rivoglitazone, route intravenous; conditions: in vivo, read-out: beta t1/2 (converted)
[42] = AUC (0 to infinity) in monkey at 0.0986 mg/kg, iv administered via tail vein by LC-MS/MS analysis; type: ADME, organism-based, Macaca mulatta; design: time infinity, dose 0.0986 mg/kg, dosed compound name [14C]Rivoglitazone, route intravenous; conditions: rhesus monkey, plasma

- dose excreted [1]: 12.6%
- AUC(0-inf) [2]: 21800 ng·h/mL
- dose excreted [3]: 2.3%
- half-life [4]: 7.34 h
- AUC(0-t) [5]: 4530 ng·h/mL
- AUC(0-inf) [6]: 22900 ng·h/mL
- Tmax [7]: 3.25 h
- half-life [8]: 4.84 h
- half-life [9]: 6.79 h
- AUC(0-t) [10]: 4340 ng·h/mL
- clearance [11]: 0.329 mL/min/kg
- bioavailability [12]: 90.4%
- bioavailability [13]: 95%
- dose excreted [14]: 23.5%
- Cmax [15]: 4570 ng/mL
- AUC(0-t) [16]: 35800 ng·h/mL
- Cmax [17]: 242 ng/mL
- CL/F [18]: 0.485 mL/min/kg
- bioavailability [19]: 76.1%
- Cmax [20]: 1330 ng/mL
- AUC(0-inf) [21]: 57200 ng·h/mL
- CL/F [22]: 0.432 mL/min/kg
- Vd [23]: 0.125 L/kg
- Tmax [24]: 1.13 h
- AUC(0-t) [25]: 17200 ng·h/mL
- AUC(0-inf) [26]: 49800 ng·h/mL
- AUC(0-t) [27]: 51700 ng·h/mL
- Vd [28]: 0.166 L/kg
- Vd [29]: 0.155 L/kg
- half-life [30]: 6.21 h
- bioavailability [31]: 98.1%
- Vd [32]: 0.138 L/kg
- AUC(0-inf) [33]: 4450 ng·h/mL
- AUC(0-inf) [34]: 23500 ng·h/mL
- AUC(0-inf) [35]: 4470 ng·h/mL
- CL/F [36]: 0.352 mL/min/kg
- Cmax [37]: 2090 ng/mL
- AUC(0-t) [38]: 48500 ng·h/mL
- dose excreted [39]: 23.8%
- half-life [40]: 8.33 h
- half-life [41]: 4.55 h
- AUC(0-inf) [42]: 5000 ng·h/mL
Compound: COc1ccc2nc(COc3ccc(CC4SC(=O)NC4=O)cc3)n(C)c2c1.Cl (racemic)
